Holding throughout (assay): NCI-60 cell line screen, 48 h
In assay [1] the test system is CAKI-1 renal.
The test system of assay [2] is DMS 273 small cell lung.
Assay [3] deals with HOP-18 NSCLC.
Assay [4] deals with KM20L2 colon.
In assay [5] the test system is M19-MEL melanoma.
In assay [6] the test system is NCI-H522 lung.
Assay [7] has as its system OVCAR-5 ovarian.
Assay [8] has as its system SK-MEL-2 melanoma.
Assay [9] has as its system SW-620 colon.
The test system of assay [10] is BT-549 breast.

Where “and” joins values, the source holds several entries; their conditions need not be identical. Identical values can stand only once.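 Method: 48-hour compound exposure of cells in 96-well plates, five concentrations, linear interpolation of endpoints. Here, GI50 denotes the concentration required for 50% inhibition of growth. TGI marks complete inhibition of growth.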

As for `O=C(O)CCCCCO`, the TGI in assay [1], in [2], in assay [3], in [4], in [5] and in [6] was above 100 µM each time. In addition, the TGI in assay [7], in [8] and in assay [9] was above 100 µM in each case.

For the compound `C/C(=N\NC(=O)c1ccccc1O)c1cccc(/C(C)=N/NC(=O)c2ccccc2O)n1`, the GI50 in [10] was 0.441 µM; in assay [2], 20.4 µM; in [3], 1.84 µM; in assay [4] it was 1.13 µM; in assay [5], 11.5 µM; in assay [6] it was 4.75 µM and 0.856 µM. For the same compound, the GI50 in assay [7] was 10.8 µM and > 95.7 µM; in [9] it was 0.632 µM. In addition, the TGI was above 100 µM in assay [10]; above 100 µM in assay [1]; above 100 µM in assay [2]; 39.4 µM in assay [3]; above 100 µM in [4]; above 74 µM in [5]. Further, the TGI in assay [6] was 27.8 µM and > 100 µM; in [7], 49.5 µM and > 100 µM; in assay [8], 38.9 µM and > 100 µM; in [9] it was above 100 µM.

Consider `COc1cc(C(=O)C/C(CCC(=O)Nc2ccc(Cl)cc2Cl)=N/NC(=O)C(N)=O)ccc1O`, for which the TGI in assay [1], in assay [2], in assay [3], in assay [4], in assay [5] and in [6] was above 100 µM throughout. The TGI in assay [7], in assay [8] and in assay [9] was above 100 µM each time.

For the compound `Cc1c(C(=O)/C=C/c2ccccc2Cl)[n+](=O)c2ccccc2n1[O-]`, the TGI in assay [1] worked out at 10.6 µM; in [2], 27.9 µM; in assay [3], 28.2 µM; in assay [4], 30.6 µM; in assay [5], 29.1 µM; in [6], 23.3 µM. Also, the TGI in assay [7] was found to be 35.7 µM; in [8], 27.3 µM; in [9], 24 µM.

Consider `CCOC(=O)N1N=NC2C3OC(C[C@@]3(C#N)OC(C)=O)[C@H]21` (stereo not given in full), for which the TGI in [1], in assay [2], in [3], in assay [4], in assay [5] and in [6] was above 100 µM throughout. In addition, the TGI in [7], in assay [8] and in assay [9] was above 100 µM in each case.

As for `CCC[CH2][Ge]([CH2]CCC)([CH2]CCC)[O]C(=O)C(OC)c1ccccc1` (stereo not given), the GI50 in [1] was 70.1 µM; in assay [2] it was 17.6 µM; in [3], above 100 µM; in assay [4] it was 17.2 µM; in assay [5], 33.9 µM; in assay [6], 16.3 µM. Further, the GI50 in assay [7] is 31.5 µM; in assay [8], 42.4 µM; in assay [9], 47.3 µM. For the same compound, the TGI in assay [1] is above 100 µM; in assay [2], above 75.9 µM; in assay [3] it was above 100 µM; in assay [4], above 100 µM; in [5] it was above 100 µM; in assay [6], above 74.9 µM. Moreover, the TGI was above 78.3 µM in assay [7], above 100 µM in [8] and above 100 µM in assay [9].

As to `CC1(O)CC2(O)C=CC3=C(C(=O)c4cccc(O)c4C3=O)C2(O)C(=O)C1O` (stereo not given), the TGI in assay [10] stood at 2.58 µM; in [1] it was 2.24 µM; in assay [2], 16.1 µM; in assay [3], 3.09 µM; in [4], 2.71 µM; in assay [5], 1.76 µM. Also, the TGI amounted to 0.29 µM in assay [6], 9.55 µM in assay [7], 9.07 µM in [8] and 1.67 µM in assay [9].

As for `COc1c(NC(=O)CC(C)=O)[c]([Hg][O]C(C)=O)c(OC)c(Cl)[c]1[Hg][O]C(C)=O`, the GI50 in assay [1] was 13 µM; in assay [2] it was 16.4 µM; in assay [3], 13.6 µM; in assay [4] it was 14.6 µM; in assay [5] it was 12.6 µM; in assay [6], 2.07 µM. In addition, the GI50 in [7] was 25.7 µM; in [8], 14.4 µM; in [9] it was 7.62 µM. Moreover, the TGI in assay [1] amounted to 25.6 µM; in assay [2], 31.9 µM; in assay [3], 26.5 µM; in assay [4], 28.5 µM; in [5] it was 25.1 µM; in assay [6], 7.04 µM. Also, the TGI in assay [7] was determined as 40.4 µM; in [8], 27.6 µM; in assay [9] it was 20.8 µM.

As for `NCCCC1NC(=O)/C(=C(O)/C=C/C2CCC[C@@H]2CC2SCCS2)C1=O` (stereo not given in full), the TGI was above 100 µM in assay [2]; above 100 µM in [3]; above 100 µM in assay [4]; above 100 µM in assay [5]; 98.4 µM in [6]; above 100 µM in assay [7]. For the same compound, the TGI in [8] and in assay [9] was above 100 µM each time.

`CC(=O)OCC1OC(n2c(=O)n(-c3ccccc3)c(=O)c3cc(Br)cc(Br)c32)C(OC(C)=O)C(OC(C)=O)C1OC(C)=O` (stereo not given): the TGI in [1], in assay [2], in assay [3], in assay [4], in assay [5] and in assay [6] was above 100 µM throughout. Further, the TGI in assay [7], in assay [8] and in [9] was above 100 µM throughout.

For `CCOC(=O)[C@H]1Nc2ccc(Cl)cc2[C@H]2OCC[C@@H]12`, the TGI in [1], in [2], in assay [3], in assay [4], in assay [5] and in assay [6] was above 100 µM throughout. The TGI in assay [7], in assay [8] and in assay [9] was above 100 µM in each case.

As for `Nc1ncnc2c(C3OC(CO)C(O)C3O)[nH]nc12` (stereo not given), the GI50 in assay [10] is 0.113 µM; in [1] it was 0.0365 µM and 0.061 µM; in assay [6], 0.239 µM; in assay [7], 0.0727 µM; in [8] it was 0.0507 µM; in assay [9] it was 0.0592 µM. The TGI in assay [10] is 3.38 µM; in assay [1] it was 0.281 µM and 0.214 µM; in assay [2], 1.58 µM; in assay [3], 0.144 µM; in [4] it was 8.26 µM; in assay [5] it was 80.5 µM. The TGI in [6] is 3.74 µM and 6.29 µM; in assay [7] it was 3.58 µM and 8.57 µM; in assay [8] it was 0.739 µM and 0.5 µM; in assay [9], 3.31 µM and 9.17 µM.

Consider `Cc1ccccc1-c1c(N)nc(N)nc1C(=O)Nc1nccs1`, for which the TGI in [1], in assay [2], in assay [3], in assay [4], in assay [5] and in assay [6] was above 100 µM each time. Besides, the TGI in assay [7], in assay [8] and in assay [9] was above 100 µM each time.

For the compound `Cc1ccc(NC(=O)CC/C(CC(=O)c2ccc(F)cc2)=N\NC(=O)C(=O)NN)cc1C`, the TGI in assay [1], in assay [2], in assay [3], in [4], in assay [5] and in assay [6] was above 100 µM each time. In addition, the TGI in [7], in [8] and in assay [9] was above 100 µM each time.

Take `Nc1ccc2c(c1)CC1c3ccccc3C(C2)c2ccccc21`: the TGI in assay [1], in assay [2], in [3], in [4], in assay [5] and in assay [6] was above 100 µM throughout. The TGI in [7], in [8] and in [9] was above 100 µM each time.

Consider `CC(=O)OC1C/C(C)=C/CCC(C)/C=C/C2(C)CCC(C(C)(C)O)C12` (stereo not given), for which the TGI in [1] was above 100 µM; in [2], above 100 µM; in assay [3] it was above 100 µM; in assay [4] it was above 100 µM; in assay [5], 88.6 µM; in assay [7] it was above 100 µM. For the same compound, the TGI in [8] and in assay [9] was above 100 µM in each case.

With `CC[N+]1(C)CCC(O)(c2ccccc2)C(C(=O)c2ccccc2)C1` (stereo not given), the TGI in [10] was found to be 27.7 µM; in assay [1], 7.51 µM; in assay [2], 47.1 µM; in assay [3], 31 µM; in assay [4], 44.5 µM; in assay [5], 36 µM. The TGI in [6] turned out to be 3.29 µM; in [7], 35.5 µM; in assay [8], 37.7 µM; in [9], 4.58 µM.

As to `CCC1(C(=O)OC)CCc2c(OC)ccc(OC)c2C1=O` (stereo not given), the TGI in assay [1], in assay [2], in [3], in [4], in assay [5] and in [6] was above 100 µM throughout. Moreover, the TGI in [7], in assay [8] and in assay [9] was above 100 µM each time.

Consider `Cc1ccc(C2(O)CC(c3ccc([N+](=O)[O-])o3)=NN2C(=O)COc2ccccc2Cl)cc1` (stereo not given), for which the TGI in [1] was above 100 µM; in assay [2], above 100 µM; in [3], above 100 µM; in assay [4], above 60 µM; in assay [5] it was 33.5 µM; in [6] it was above 48.4 µM. The TGI was above 91.8 µM in assay [7], 26.4 µM in assay [8] and 72.3 µM in assay [9].

The values are drawn from PubChem BioAssay (NCI).
